The values that follow come from US20250136606A1, “MODULATORS OF TRPML, THEIR COMPOSITIONS AND METHODS OF USE” (Caraway Therapeutics, Inc., priority 2021, published 2025).

One test has as its target TRPML1 (Homo sapiens, UniProt Q9GZU1). Kind of test: Fluorescent TRPML1 assay (Fluo4-AM calcium fluorescence in doxycycline-induced HEK-293 Trex cells). The class given is cell-based. How it is done:
(§1) HEK-293 Trex cells were stably transfected with a construct consisting of the human coding sequence for TRPML1 cloned into the […] plasmid pCDNA5 T/O. Mutations were introduced into the TRPML1 sequence to facilitate expression on the cell surface (Silvia Vergarajauregui, Rosa Puertollano, Traffic. 2006 March; 7(3): 337-353). Briefly, the cells are cultured in 150 mm round tissue culture dishes containing 20 mL of media. The day before the assay the cells are rinsed with DPBS-Ca—Mg and then treated briefly with Trypsin-EDTA. The Trypsin-EDTA is diluted with growth media, and cells are counted. 38×10^6 cells are re-plated into 150 mm round tissue culture dishes in media containing 0.5 ug/mL doxycycline to induce expression of hTRPML1.
(§2) The day of the experiment cells are lifted from the plates as above and collected by centrifugation. The cells are then suspended in dye loading buffer consisting of Ringer's solution supplemented with 0.1% Pluronic Acid and 1 micromolar Fluo4-AM dye. Cells are loaded for ˜60 minutes in the dark with occasional mixing. The cells are collected by centrifugation, the loading media aspirated, and the cells resuspended in 25 mL Ringer's solution and incubated ˜60 minutes in the dark. The cells are again collected by centrifugation, rinsed in Ringer's Solution and resuspended to […] in modified Ringer's solution containing 10 mM calcium.
(§3) Compounds are dissolved to a concentration of 10 millimolar with DMSO. Compound plates are created by dispensing compounds into 384 well black wall clear bottom plates (Greiner 781091). Positive and negative controls are included on each plate. Typically, different amounts of each compound are tested ranging from 100 nanoMoles (20 micromolar final concentration) decreasing in half-log steps to 31 picoMoles (6 nanomolar final concentration). Each concentration is typically tested in triplicate.
(§4) 50 microliters of dye-loaded cells are dispensed into each well of the compound assay plate created above. The fluorescence in each well is then determined with an excitation wavelength of 480 nm and an emission wavelength of 540 nm using either a Molecular Devices SpectraMax multimode plate reader or a Hamamatsu FDSS/uCell plate imager.
(§5) The resulting fluorescence for each well is exported as an ascii file and loaded into our LIMS for analysis. The percent activity of each compound at each concentration is determined by comparison to the positive and negative control wells included in each plate.
(§6) EC50 values were calculated using a non-linear regression of Prism. In the table, “A” indicates an EC50 of less than 100 nM, “B” indicates an EC50 range from 100 nM to 500 nM; “C” indicates an EC50 range from 500 nM to 2 μM; and “D” indicates an EC50 greater than 2 μM.

In another test the target is T1, TRPML3 (Homo sapiens, UniProt Q8TDD5).
T1 construct: expressed in transfected cells
T1 sequence (Q8TDD5 1-553): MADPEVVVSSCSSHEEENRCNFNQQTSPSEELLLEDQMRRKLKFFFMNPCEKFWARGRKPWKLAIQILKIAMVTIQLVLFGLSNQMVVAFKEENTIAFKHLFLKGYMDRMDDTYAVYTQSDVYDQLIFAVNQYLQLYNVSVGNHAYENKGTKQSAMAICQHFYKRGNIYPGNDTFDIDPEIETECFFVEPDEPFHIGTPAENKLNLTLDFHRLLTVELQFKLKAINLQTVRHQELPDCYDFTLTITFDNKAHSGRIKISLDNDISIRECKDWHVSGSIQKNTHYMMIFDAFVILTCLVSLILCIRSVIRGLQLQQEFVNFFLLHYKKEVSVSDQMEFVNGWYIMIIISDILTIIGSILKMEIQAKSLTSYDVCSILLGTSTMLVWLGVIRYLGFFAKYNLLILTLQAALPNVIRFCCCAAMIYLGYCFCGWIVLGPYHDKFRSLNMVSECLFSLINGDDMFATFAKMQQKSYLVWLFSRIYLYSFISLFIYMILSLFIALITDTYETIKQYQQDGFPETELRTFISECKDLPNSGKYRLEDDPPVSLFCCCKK
Kind of test: Fluorescent TRPML3 assay (performed as for TRPML1, substituting the TRPML3 subtype). The class given is cell-based. The protocol: as §1, §2, §3, §4, §5
TRPML2 and TRPML3 Assays Assays for TRPML2 and TRPML3 were performed as above for TRPML1, by substituting the appropriate TRPML2 or TRPML3 subtype for the TRPML1.
as §6

Read-outs that look alike come from different tables or passages of the source.

Chain of TRPML1 (Q9GZU1 whole entry L15A/L16A/L577A/L578A, form open): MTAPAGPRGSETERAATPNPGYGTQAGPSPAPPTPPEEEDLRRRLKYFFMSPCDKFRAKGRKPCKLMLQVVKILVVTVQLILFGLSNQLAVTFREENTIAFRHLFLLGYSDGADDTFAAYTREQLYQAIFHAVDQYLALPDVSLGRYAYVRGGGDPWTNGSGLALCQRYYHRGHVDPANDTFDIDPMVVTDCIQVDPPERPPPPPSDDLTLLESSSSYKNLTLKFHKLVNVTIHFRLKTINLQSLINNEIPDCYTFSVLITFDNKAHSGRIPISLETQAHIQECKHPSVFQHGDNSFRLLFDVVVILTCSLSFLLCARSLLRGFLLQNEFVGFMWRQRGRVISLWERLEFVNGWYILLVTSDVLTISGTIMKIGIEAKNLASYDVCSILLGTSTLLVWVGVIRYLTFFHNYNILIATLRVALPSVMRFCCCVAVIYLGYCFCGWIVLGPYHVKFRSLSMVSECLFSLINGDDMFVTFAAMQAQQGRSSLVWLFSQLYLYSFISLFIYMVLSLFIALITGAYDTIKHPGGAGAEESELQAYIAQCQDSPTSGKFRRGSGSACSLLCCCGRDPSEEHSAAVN

With `Cc1cn(-c2cncc(C#N)c2)c2ncnc(N3CCN(C(=O)OC(C)(C)C)C[C@@H]3C)c12` [Compound 694, tert-butyl (S)-4-(7-(5-cyanopyridin-3-yl)-5-methyl-7H-pyrrolo[2,3-d]pyrimidin-4-yl)-3-methylpiperazine-1-carboxylate], the EC50 at TRPML1 is 0.1 to 0.5 µM; at TRPML3 it was less than 0.1 µM. As to `CC(C)(C)OC(=O)N1CCN(c2ncnc3c2c(-c2ccccc2F)cn3-c2cc(C#N)ccn2)CC12CC2` [Compound 392, tert-butyl 7-(7-(4-cyanopyridin-2-yl)-5-(2-fluorophenyl)-7H-pyrrolo[2,3-d]pyrimidin-4-yl)-4,7-diazaspiro[2.5]octane-4-carboxylate], the EC50 on TRPML1 (fluorescent calcium assay) was 0.1 to 0.5 µM; on TRPML3 (fluorescent calcium assay), less than 0.1 µM. Regarding `C[C@@H]1CN(c2ncnc3c2c(C(F)(F)F)cn3C2CCCC2)[C@@H](C)CN1C(=O)OC(C)(C)C` [Compound 626, tert-butyl (2R,5S)-4-(7-cyclopentyl-5-(trifluoromethyl)-7H-pyrrolo[2,3-d]pyrimidin-4-yl)-2,5-dimethylpiperazine-1-carboxylate], the half-maximal effective concentration (EC50) was less than 0.1 µM at TRPML1 and 0.5 to 2 µM on TRPML3.

With `CC(C)OC(=O)N1CCN(c2ncnc3c2c(C2CC2)cn3-c2cc(C#N)ccn2)[C@@H](C)C1` [Compound 386, isopropyl (S)-4-(7-(4-cyanopyridin-2-yl)-5-cyclopropyl-7H-pyrrolo[2,3-d]pyrimidin-4-yl)-3-methylpiperazine-1-carboxylate], the figures for the EC50 at TRPML1 (fluorescent calcium assay) and on TRPML3 (fluorescent calcium assay) were less than 0.1 µM and 0.1 to 0.5 µM, respectively. Take `C[C@H]1CN(C(=O)OC(C)(C)C)CCN1c1ncnc2c1c(C1CCOCC1)cn2-c1cccc(F)c1` [Compound 470, tert-butyl (S)-4-(7-(3-fluorophenyl)-5-(tetrahydro-2H-pyran-4-yl)-7H-pyrrolo[2,3-d]pyrimidin-4-yl)-3-methylpiperazine-1-carboxylate]: the 50% effective concentration (EC50) on TRPML1 (fluorescent calcium assay) and on TRPML3 (fluorescent calcium assay) was 0.5 to 2 µM in each case.

As for `C[C@@H]1CN(c2ncnc3c2c(C(F)(F)F)cn3[C@@H]2CCCOC2)[C@@H](C)CN1C(=O)OC(C)(C)C` [Compound 632, tert-butyl (2R,5S)-2,5-dimethyl-4-(7-((R)-tetrahydro-2H-pyran-3-yl)-5-(trifluoromethyl)-7H-pyrrolo[2,3-d]pyrimidin-4-yl)piperazine-1-carboxylate], the EC50 at TRPML1 is 0.5 to 2 µM; at TRPML3 it was greater than 2 µM. For `CC(C)(OC(=O)N1CCN(c2ncnc3c2c(C2CC2)cn3-c2cc(C#N)ccn2)CC1)C(F)(F)F` [Compound 385, 1,1,1-trifluoro-2-methylpropan-2-yl 4-(7-(4-cyanopyridin-2-yl)-5-cyclopropyl-7H-pyrrolo[2,3-d]pyrimidin-4-yl)piperazine-1-carboxylate], the EC50 at TRPML1 (fluorescent calcium assay) and on TRPML3 (fluorescent calcium assay) was 0.1 to 0.5 µM in each case.

Regarding `C[C@@H]1CN(c2ncnc3c2c(C(F)F)cn3-c2cc(F)cc(F)c2)[C@@H](C)CN1C(=O)OC1(C)CC1` [Compound 607, 1-methylcyclopropyl (2R,5S)-4-(5-(difluoromethyl)-7-(3,5-difluorophenyl)-7H-pyrrolo[2,3-d]pyrimidin-4-yl)-2,5-dimethylpiperazine-1-carboxylate], the results for the EC50 at TRPML1 and on TRPML3 were 0.1 to 0.5 µM and 0.5 to 2 µM, respectively. Turning to `CCOC(=O)N1CCN(c2ncnc3c2c(-c2ccccc2F)cn3-c2cncc(OC)c2)[C@@H](C)C1` [Compound 126, ethyl (S)-4-(5-(2-fluorophenyl)-7-(5-methoxypyridin-3-yl)-7H-pyrrolo[2,3-d]pyrimidin-4-yl)-3-methylpiperazine-1-carboxylate], the EC50 on TRPML1 (fluorescent calcium assay) and at TRPML3 (fluorescent calcium assay) was 0.5 to 2 µM in each case.

For the molecule `CC(C)(C)OC(=O)N1CCN(c2ncnc3c2c(C2CC2)cn3-c2cc(F)cc(F)c2)C[C@@H]1C(F)F` (single isomer, unassigned) [Compound 315], the EC50 on TRPML1 (fluorescent calcium assay) and at TRPML3 (fluorescent calcium assay) was 0.5 to 2 µM in each case. With `CC(C)C(=O)N1CCN(c2nccc3c2c(-c2ccccc2F)cn3-c2cc(C#N)ccn2)[C@@H](C)C1` [Compound 450, (S)-2-(3-(2-fluorophenyl)-4-(4-isobutyryl-2-methylpiperazin-1-yl)-1H-pyrrolo[3,2-c]pyridin-1-yl)isonicotinonitrile], the 50% effective concentration (EC50) at TRPML1 (fluorescent calcium assay) was less than 0.1 µM; at TRPML3 (fluorescent calcium assay), 0.1 to 0.5 µM.

For the molecule `C[C@@H]1CN(c2ncnc3c2c(C(F)(F)F)cn3[C@H]2CCCC(F)(F)C2)[C@@H](C)CN1C(=O)OC(C)(C)C` (single isomer, unassigned) [Compound 713], the concentration giving a half-maximal response (EC50) on TRPML1 is 0.5 to 2 µM; at TRPML3 it was 0.1 to 0.5 µM. Regarding `N#Cc1ccnc(-n2cc(-c3ccccc3F)c3c(N4CCN(C(=O)OCC(F)(F)F)CC4)ncnc32)c1` [Compound 373, 2,2,2-trifluoroethyl 4-(7-(4-cyanopyridin-2-yl)-5-(2-fluorophenyl)-7H-pyrrolo[2,3-d]pyrimidin-4-yl)piperazine-1-carboxylate], the EC50 on TRPML1 (fluorescent calcium assay) was 0.1 to 0.5 µM; on TRPML3 (fluorescent calcium assay), less than 0.1 µM. Consider `C[C@@H]1CN(c2ncnc3c2c(OC2CCC2)cn3-c2cc(C#N)ccn2)[C@@H](C)CN1C(=O)OC(C)(C)C` [Compound 508, tert-butyl (2R,5S)-4-(7-(4-cyanopyridin-2-yl)-5-cyclobutoxy-7H-pyrrolo[2,3-d]pyrimidin-4-yl)-2,5-dimethylpiperazine-1-carboxylate], for which the concentration for a half-maximal effect (EC50) on TRPML1 and on TRPML3 was less than 0.1 µM in each case. For the molecule `C[C@H]1CN(C(=O)OC(C)(C)C)CCN1c1ncnc2c1c(C1CC1)cn2-c1ncc(C#N)s1` [Compound 397, tert-butyl (S)-4-(7-(5-cyanothiazol-2-yl)-5-cyclopropyl-7H-pyrrolo[2,3-d]pyrimidin-4-yl)-3-methylpiperazine-1-carboxylate], the figures for the 50% effective concentration (EC50) on TRPML1 (fluorescent calcium assay) and on TRPML3 (fluorescent calcium assay) were greater than 2 µM and 0.1 to 0.5 µM, respectively. With `C[C@H]1CN(C(=O)OC(C)(C)C)CCN1c1ncnc2c1c(C1CC1)cn2-c1ccc(F)c(C#N)c1` [Compound 290, tert-butyl (S)-4-(7-(3-cyano-4-fluorophenyl)-5-cyclopropyl-7H-pyrrolo[2,3-d]pyrimidin-4-yl)-3-methylpiperazine-1-carboxylate], the EC50 on TRPML1 (fluorescent calcium assay) was less than 0.1 µM.

In the case of `C[C@H]1CN(C(=O)OC(C)(C)C)CCN1c1ncnc2c1c(N1CCCC1)cn2C1CCOCC1` [Compound 360, tert-butyl (S)-3-methyl-4-(5-(pyrrolidin-1-yl)-7-(tetrahydro-2H-pyran-4-yl)-7H-pyrrolo[2,3-d]pyrimidin-4-yl)piperazine-1-carboxylate], the EC50 at TRPML1 (fluorescent calcium assay) was in the range of 0.5 to 2 µM. On the same count and under the same terms, the value for `C[C@@H]1CN(c2ncnc3c2c(N2CCCC2)cn3-c2cccc(C#N)c2)CCN1C(=O)OC(C)(C)C` [Compound 277, tert-butyl (R)-4-(7-(3-cyanophenyl)-5-(pyrrolidin-1-yl)-7H-pyrrolo[2,3-d]pyrimidin-4-yl)-2-methylpiperazine-1-carboxylate] was less than 0.1 µM; that for `C[C@H]1CN(C(=O)OC(C)(C)C)CCN1c1ncnc2c1c(N1CCC(C)(C)C1)cn2-c1cccc(C#N)c1` [Compound 358, tert-Butyl (S)-4-(7-(3-cyanophenyl)-5-(3,3-dimethylpyrrolidin-1-yl)-7H-pyrrolo[2,3-d]pyrimidin-4-yl)-3-methylpiperazine-1-carboxylate] was less than 0.1 µM; that for `C[C@@H]1CN(c2ncnc3c2c(N2CCCCC2)cn3-c2cccc(Cl)c2)CCN1C(=O)OC(C)(C)C` [Compound 287, tert-butyl (R)-4-(7-(3-chlorophenyl)-5-(piperidin-1-yl)-7H-pyrrolo[2,3-d]pyrimidin-4-yl)-2-methylpiperazine-1-carboxylate] was less than 0.1 µM.
